# Reference: ChEMBL document CHEMBL5724914, “Linking interpersonal differences in gut microbiota composition and drug biotransformation activity” (2024)
# Test: (§1) The drug is tested on Z-016 corresponding to mouse gut metagenome with ENA study accession number: PRJEB37062 and ENA sample accession number: ERS12561815 for biotransformation under anaerobic condition. The drug concentrations were measured over 9 timepoints collected between 0 and 24 hours of incubation by liquid-chromatography-coupled mass spectrometry (LC–MS)
# Details: 2 µM
# Note: call rule not given here.
row,Bacterial Biotransformation,Compound
1,Compound NOT metabolized,CCCCC1=NC2(CCCC2)C(=O)N1Cc1ccc(-c2ccccc2-c2nnn[nH]2)cc1 [IRBESARTAN]
2,Compound NOT metabolized,CCCc1nn(C)c2c(=O)[nH]c(-c3cc(S(=O)(=O)N4CCN(C)CC4)ccc3OCC)nc12.O=C(O)CC(O)(CC(=O)O)C(=O)O [SILDENAFIL CITRATE]

# Details: human gut metagenome, 24 h, 2 µM
row,Bacterial Biotransformation,Compound
1,Compound metabolized,CCCCC1=NC2(CCCC2)C(=O)N1Cc1ccc(-c2ccccc2-c2nnn[nH]2)cc1 [IRBESARTAN]
2,Compound metabolized,CCCc1nn(C)c2c(=O)[nH]c(-c3cc(S(=O)(=O)N4CCN(C)CC4)ccc3OCC)nc12.O=C(O)CC(O)(CC(=O)O)C(=O)O [SILDENAFIL CITRATE]

# Details: human gut metagenome, 24 h, 2 µM
# Remark: another data set of the same source
row,Bacterial Biotransformation,Compound
1,Compound metabolized,CCCCC1=NC2(CCCC2)C(=O)N1Cc1ccc(-c2ccccc2-c2nnn[nH]2)cc1 [IRBESARTAN]
2,Compound NOT metabolized,CCCc1nn(C)c2c(=O)[nH]c(-c3cc(S(=O)(=O)N4CCN(C)CC4)ccc3OCC)nc12.O=C(O)CC(O)(CC(=O)O)C(=O)O [SILDENAFIL CITRATE]

# Details: human gut metagenome, 24 h, 2 µM
# Remark: another data set of the same source
row,Bacterial Biotransformation,Compound
1,Compound metabolized,CCCCC1=NC2(CCCC2)C(=O)N1Cc1ccc(-c2ccccc2-c2nnn[nH]2)cc1 [IRBESARTAN]
2,Compound NOT metabolized,CCCc1nn(C)c2c(=O)[nH]c(-c3cc(S(=O)(=O)N4CCN(C)CC4)ccc3OCC)nc12.O=C(O)CC(O)(CC(=O)O)C(=O)O [SILDENAFIL CITRATE]

# Test: as §1, with “Z-019” for “Z-016”, “rat” for “mouse”, “ERS12561818” for “ERS12561815”
# Details: 2 µM
row,Bacterial Biotransformation,Compound
1,Compound NOT metabolized,CCCCC1=NC2(CCCC2)C(=O)N1Cc1ccc(-c2ccccc2-c2nnn[nH]2)cc1 [IRBESARTAN]
2,Compound NOT metabolized,CCCc1nn(C)c2c(=O)[nH]c(-c3cc(S(=O)(=O)N4CCN(C)CC4)ccc3OCC)nc12.O=C(O)CC(O)(CC(=O)O)C(=O)O [SILDENAFIL CITRATE]

# Details: human gut metagenome, 24 h, 2 µM
# Remark: another data set of the same source
row,Bacterial Biotransformation,Compound
1,Compound metabolized,CCCCC1=NC2(CCCC2)C(=O)N1Cc1ccc(-c2ccccc2-c2nnn[nH]2)cc1 [IRBESARTAN]
2,Compound NOT metabolized,CCCc1nn(C)c2c(=O)[nH]c(-c3cc(S(=O)(=O)N4CCN(C)CC4)ccc3OCC)nc12.O=C(O)CC(O)(CC(=O)O)C(=O)O [SILDENAFIL CITRATE]

# Details: human gut metagenome, 24 h, 2 µM
# Remark: another data set of the same source
row,Bacterial Biotransformation,Compound
1,Compound metabolized,CCCCC1=NC2(CCCC2)C(=O)N1Cc1ccc(-c2ccccc2-c2nnn[nH]2)cc1 [IRBESARTAN]
2,Compound NOT metabolized,CCCc1nn(C)c2c(=O)[nH]c(-c3cc(S(=O)(=O)N4CCN(C)CC4)ccc3OCC)nc12.O=C(O)CC(O)(CC(=O)O)C(=O)O [SILDENAFIL CITRATE]

# Test: as §1, with “WLS-086” for “Z-016”, “human” for “mouse”, “ERS12561752” for “ERS12561815”
# Details: 2 µM
row,Bacterial Biotransformation,Compound
1,Compound metabolized,CCCCC1=NC2(CCCC2)C(=O)N1Cc1ccc(-c2ccccc2-c2nnn[nH]2)cc1 [IRBESARTAN]
2,Compound metabolized,CCCc1nn(C)c2c(=O)[nH]c(-c3cc(S(=O)(=O)N4CCN(C)CC4)ccc3OCC)nc12.O=C(O)CC(O)(CC(=O)O)C(=O)O [SILDENAFIL CITRATE]

# Test: as §1, with “Z-023” for “Z-016”, “to” for “to mouse gut”, “ERS12561822” for “ERS12561815”
# Details: 2 µM
row,Bacterial Biotransformation,Compound
1,Compound metabolized,CCCCC1=NC2(CCCC2)C(=O)N1Cc1ccc(-c2ccccc2-c2nnn[nH]2)cc1 [IRBESARTAN]
2,Compound metabolized,CCCc1nn(C)c2c(=O)[nH]c(-c3cc(S(=O)(=O)N4CCN(C)CC4)ccc3OCC)nc12.O=C(O)CC(O)(CC(=O)O)C(=O)O [SILDENAFIL CITRATE]

# Test: as §1, with “WLS-310” for “Z-016”, “human” for “mouse”, “ERS12561785” for “ERS12561815”
# Details: 2 µM
row,Bacterial Biotransformation,Compound
1,Compound metabolized,CCCCC1=NC2(CCCC2)C(=O)N1Cc1ccc(-c2ccccc2-c2nnn[nH]2)cc1 [IRBESARTAN]
2,Compound metabolized,CCCc1nn(C)c2c(=O)[nH]c(-c3cc(S(=O)(=O)N4CCN(C)CC4)ccc3OCC)nc12.O=C(O)CC(O)(CC(=O)O)C(=O)O [SILDENAFIL CITRATE]

# Details: human gut metagenome, 24 h, 2 µM
# Remark: another data set of the same source
row,Bacterial Biotransformation,Compound
1,Compound metabolized,CCCCC1=NC2(CCCC2)C(=O)N1Cc1ccc(-c2ccccc2-c2nnn[nH]2)cc1 [IRBESARTAN]
2,Compound metabolized,CCCc1nn(C)c2c(=O)[nH]c(-c3cc(S(=O)(=O)N4CCN(C)CC4)ccc3OCC)nc12.O=C(O)CC(O)(CC(=O)O)C(=O)O [SILDENAFIL CITRATE]

# Test: as §1, with “Z-030” for “Z-016”, “ERS12561829” for “ERS12561815”
# Details: 2 µM
row,Bacterial Biotransformation,Compound
1,Compound NOT metabolized,CCCCC1=NC2(CCCC2)C(=O)N1Cc1ccc(-c2ccccc2-c2nnn[nH]2)cc1 [IRBESARTAN]
2,Compound NOT metabolized,CCCc1nn(C)c2c(=O)[nH]c(-c3cc(S(=O)(=O)N4CCN(C)CC4)ccc3OCC)nc12.O=C(O)CC(O)(CC(=O)O)C(=O)O [SILDENAFIL CITRATE]

# Details: human gut metagenome, 24 h, 2 µM
# Remark: another data set of the same source
row,Bacterial Biotransformation,Compound
1,Compound metabolized,CCCCC1=NC2(CCCC2)C(=O)N1Cc1ccc(-c2ccccc2-c2nnn[nH]2)cc1 [IRBESARTAN]
2,Compound NOT metabolized,CCCc1nn(C)c2c(=O)[nH]c(-c3cc(S(=O)(=O)N4CCN(C)CC4)ccc3OCC)nc12.O=C(O)CC(O)(CC(=O)O)C(=O)O [SILDENAFIL CITRATE]

# Test: as §1, with “Z-018” for “Z-016”, “pig” for “mouse”, “ERS12561817” for “ERS12561815”
# Details: 2 µM
row,Bacterial Biotransformation,Compound
1,Compound metabolized,CCCCC1=NC2(CCCC2)C(=O)N1Cc1ccc(-c2ccccc2-c2nnn[nH]2)cc1 [IRBESARTAN]
2,Compound NOT metabolized,CCCc1nn(C)c2c(=O)[nH]c(-c3cc(S(=O)(=O)N4CCN(C)CC4)ccc3OCC)nc12.O=C(O)CC(O)(CC(=O)O)C(=O)O [SILDENAFIL CITRATE]

# Details: human gut metagenome, 24 h, 2 µM
# Remark: another data set of the same source
row,Bacterial Biotransformation,Compound
1,Compound NOT metabolized,CCCCC1=NC2(CCCC2)C(=O)N1Cc1ccc(-c2ccccc2-c2nnn[nH]2)cc1 [IRBESARTAN]
2,Compound NOT metabolized,CCCc1nn(C)c2c(=O)[nH]c(-c3cc(S(=O)(=O)N4CCN(C)CC4)ccc3OCC)nc12.O=C(O)CC(O)(CC(=O)O)C(=O)O [SILDENAFIL CITRATE]

# Test: as §1, with “Z-025” for “Z-016”, “rabbit” for “mouse”, “ERS12561824” for “ERS12561815”
# Details: 2 µM
row,Bacterial Biotransformation,Compound
1,Compound NOT metabolized,CCCCC1=NC2(CCCC2)C(=O)N1Cc1ccc(-c2ccccc2-c2nnn[nH]2)cc1 [IRBESARTAN]
2,Compound metabolized,CCCc1nn(C)c2c(=O)[nH]c(-c3cc(S(=O)(=O)N4CCN(C)CC4)ccc3OCC)nc12.O=C(O)CC(O)(CC(=O)O)C(=O)O [SILDENAFIL CITRATE]

# Details: human gut metagenome, 24 h, 2 µM
# Remark: another data set of the same source
row,Bacterial Biotransformation,Compound
1,Compound metabolized,CCCCC1=NC2(CCCC2)C(=O)N1Cc1ccc(-c2ccccc2-c2nnn[nH]2)cc1 [IRBESARTAN]
2,Compound metabolized,CCCc1nn(C)c2c(=O)[nH]c(-c3cc(S(=O)(=O)N4CCN(C)CC4)ccc3OCC)nc12.O=C(O)CC(O)(CC(=O)O)C(=O)O [SILDENAFIL CITRATE]

# Details: human gut metagenome, 24 h, 2 µM
# Remark: another data set of the same source
row,Bacterial Biotransformation,Compound
1,Compound metabolized,CCCCC1=NC2(CCCC2)C(=O)N1Cc1ccc(-c2ccccc2-c2nnn[nH]2)cc1 [IRBESARTAN]
2,Compound metabolized,CCCc1nn(C)c2c(=O)[nH]c(-c3cc(S(=O)(=O)N4CCN(C)CC4)ccc3OCC)nc12.O=C(O)CC(O)(CC(=O)O)C(=O)O [SILDENAFIL CITRATE]

# Test: as §1, with “Z-014” for “Z-016”, “rat” for “mouse”, “ERS12561814” for “ERS12561815”
# Details: 2 µM
row,Bacterial Biotransformation,Compound
1,Compound NOT metabolized,CCCCC1=NC2(CCCC2)C(=O)N1Cc1ccc(-c2ccccc2-c2nnn[nH]2)cc1 [IRBESARTAN]
2,Compound NOT metabolized,CCCc1nn(C)c2c(=O)[nH]c(-c3cc(S(=O)(=O)N4CCN(C)CC4)ccc3OCC)nc12.O=C(O)CC(O)(CC(=O)O)C(=O)O [SILDENAFIL CITRATE]

# Details: human gut metagenome, 24 h, 2 µM
# Remark: another data set of the same source
row,Bacterial Biotransformation,Compound
1,Compound metabolized,CCCCC1=NC2(CCCC2)C(=O)N1Cc1ccc(-c2ccccc2-c2nnn[nH]2)cc1 [IRBESARTAN]
2,Compound NOT metabolized,CCCc1nn(C)c2c(=O)[nH]c(-c3cc(S(=O)(=O)N4CCN(C)CC4)ccc3OCC)nc12.O=C(O)CC(O)(CC(=O)O)C(=O)O [SILDENAFIL CITRATE]
